# According to patent US20250367187A1, “QUINOLINE DERIVATIVE USED FOR TREATING SMALL CELL LUNG CANCER” (CHIA TAI TIANQING PHARMACEUTICAL GROUP CO., LTD., priority 2018, published 2025):
# Where a name gives a salt, the structure may show the parent alone.
# How the values were obtained:
# [1] = test system: small cell lung cancer with liver and brain metastases; experiment: Case of a patient with small cell lung cancer with liver and brain metastases (CT follow-up); type: in vivo, human
# Method: A person was pathologically diagnosed with small cell lung cancer of the left lower lobe in October 2013 after surgery. On Dec. […] The patient was admitted to the hospital for one cycle of liposomal paclitaxel+carboplatin+temozolomide chemotherapy and was discharged on December 28.
# One cycle of TC regimen (paclitaxel+carboplatin) was started on Jan. 17, 2017, and the efficacy was evaluated as PD on Feb. 10, 2017. One cycle of IP regimen (irinotecan 120 mg d1, 80 mg d8; cisplatin 100 mg d1) was started on Feb. 16, 2017.
# On May 12, 2017, oral administration of a capsule of the dihydrochloride of the compound of formula I at 12 mg was started once daily for 2 weeks and interrupted for 1 week, every 3-week as one treatment cycle until PD or intolerance.
# The CT results were as follows: • After the first treatment cycle: target lesion: 63 mm; non-target lesions: non-CR/non-PD. • After the second treatment cycle: target lesion: 65 mm; non-target lesions: non-CR/non-PD. • After the fourth treatment cycle: target lesion: 66 mm; non-target lesions: non-CR/non-PD. • After the sixth treatment cycle: target lesion: 72 mm; non-target lesions: non-CR/non-PD. 1-20. (canceled)
# [2] = test system: patients with relapsed small cell lung cancer; experiment: Multicenter, randomized, double-blind, placebo-controlled phase II clinical study; type: in vivo, human
# Method: A multicenter, randomized, double-blind and placebo-controlled phase II clinical study was conducted for patients with relapsed small cell lung cancer characterized by presence of measurable lesions and prior standard treatment. In this study; 120 patients were enrolled and randomized to receive oral administration of 1 capsule of the dihydrochloride of the compound of formula I at 12 mg/0 mg once daily. The oral administration was continued for 2 weeks and interrupted for 1 week, i.e., 1 treatment cycle took 3 weeks (21 days). These patients aged 18-75 were treated with the capsule of the dihydrochloride of the compound of formula I and placebo control, and patients who had previously used other targeted drugs (such as sunitinib, bevacizumab, and endostar) and immunotargeted drugs were excluded. In the case of progressive disease (PD) determined by the response evaluation criteria or judged clinically; treatment with other anti-tumor drugs (such as chemotherapy; targeted therapy or biological agent therapy) influencing the judgment of efficacy; unexpected pregnancy; death and the like, the administration was interrupted (terminated) for a subject. For patients with disease under control (CR+PR+SD) and tolerable adverse reactions, the administration was continued. For patients who were unsuitable for continued administration judged by the investigator or were evaluated as PD according to RECIST 1.1 criteria, the administration was terminated. During the administration, depending on the drug-related toxicity degree and the possible efficacy benefit of a patient, the investigator determined whether to adjust the dosage, and the adjustable dosage was 8 mg/0 mg or 10 mg/0 mg. The primary efficacy endpoint was progression-free survival (PFS), and the secondary efficacy endpoints were overall survival (OS), objective response rate (ORR) (CR+PR), disease control rate (DCR) (CR+PR+SD), quality of life score and safety: The objective efficacy endpoint was evaluated according to the response evaluation criteria in solid tumor (RECIST 1.1). All statistical analyses were conducted using the SAS 9.2 statistical analysis software programming. All statistical tests were conducted using bilateral test. When P value≤0.05, the tested difference was considered statistically significant, with the confidence interval being 95% confidence. For the primary efficacy endpoint PFS, 50% (median) PFS and PFS at different time points after the start of the treatment were calculated by using the product limit method according to the data situation, and the two groups were compared using Log-Rank test. For OS, 50% (median) OS was calculated by using the product limit method according to the data situation, and the two groups were compared using Log-Rank test. The full analysis set (FAS) was used for the statistical dataset.
# [3] = after the fourth treatment cycle
# [4] = after the second treatment cycle
# [5] = after the sixth treatment cycle
# [6] = CR or PR achieved with second-line chemotherapy: No
# [7] = CR or PR achieved with second-line chemotherapy: Yes
# [8] = all patients, FAS, capsule 12 mg oral once daily, 2 weeks on / 1 week off
# [9] = brain metastasis upon enrollment: Yes
# [10] = clinical stage before randomization: extended stage
smiles,measurement,setting,value
COc1cc2c(Oc3ccc4[nH]c(C)cc4c3F)ccnc2cc1OCC1(N)CC1 [1-[[[4-(4-fluoro-2-methyl-1H-indol-5-yl)oxy-6-methoxyquinolin-7-yl]oxy]methyl]cyclopropylamine dihydrochloride],target lesion (CT),"[1]; after the first treatment cycle, liver nodes, 64 mm before treatment, 12 mg once daily 2 weeks on / 1 week off",63 mm
same,non-target lesions (CT),"[1]; after the first treatment cycle, multiple metastases in the brain",non-CR/non-PD
same,non-target lesions (CT),[1]; [3],non-CR/non-PD
same,target lesion (CT),[1]; [3],66 mm
same,non-target lesions (CT),[1]; [4],non-CR/non-PD
same,target lesion (CT),[1]; [4],65 mm
same,non-target lesions (CT),[1]; [5],non-CR/non-PD
same,target lesion (CT),[1]; [5],72 mm
same,tolerability of the administration,"[1]; capsule 12 mg oral once daily, 2 weeks on / 1 week off",well tolerated
same,Overall survival P50,[2]; [6],7.29 month
same,Progression-free survival P50,[2]; [6],4.11 month
same,Overall survival P50,[2]; [7],6.80 month
same,Progression-free survival P50,[2]; [7],2.79 month
same,"Overall survival of patients (OS), Median (95% CI)",[2]; [8],"7.29(6.50, 10.51) month"
same,"Progression-free survival of patients (PFS), Median (95% CI)",[2]; [8],"4.07(2.79, 4.24) month"
same,Overall survival P50,[2]; brain metastasis upon enrollment: No,8.80 month
same,Overall survival P50,[2]; [9],6.08 month
same,Progression-free survival P50,[2]; [9],3.84 month
same,Overall survival P50,[2]; chemotherapy line: second-line,7.29 month
same,Progression-free survival P50,[2]; chemotherapy line: second-line,4.11 month
same,Overall survival P50,[2]; [10],8.05 month
same,Progression-free survival P50,[2]; [10],3.84 month
same,Progression-free survival P50,[2]; clinical stage before randomization: limited stage,4.83 month
same,Progression-free survival P50,[2]; treated with docetaxel: No,4.07 month
same,Progression-free survival P50,[2]; treated with docetaxel: Yes,2.83 month
same,Progression-free survival P50,[2]; treated with irinotecan + platinum: No,2.83 month
same,Progression-free survival P50,[2]; treated with irinotecan + platinum: Yes,4.07 month
same,Progression-free survival P50,[2]; treated with paclitaxel: No,4.11 month
same,Progression-free survival P50,[2]; treated with paclitaxel: Yes,2.86 month
